Tested on: VA patients with PTSD (PTSD symptoms, PTSD Checklist)
Experiment: TreeScan nested case-control study of medications associated with PTSD symptom improvement (PTSD Checklist) in VA records
Format: in vivo, human
Settings: for association with PTSD symptom improvement, in words (statistical alert at P<0.1): overall sample
Protocol: Study Sample and Data Sources. A nested case-control study was conducted within a previously established retrospective cohort that included all VA users with a clinical diagnosis of PTSD (International Classification of Diseases [ICD]-9:309.81, ICD-10: F43.1x) from Oct. 1, 1999 through Sep. 30, 2019 (Shiner et al. (2021) J Eval Clin Pract.). The data source contains information on services use, clinical diagnoses, filled prescriptions, and patient-reported outcome measures (PROMs) for PTSD using the PTSD Checklist (PCL) for these patients. This study was approved by the Veterans Institutional Review Board of Northern New England.
The goal of the current study was to evaluate any filled medications associated with PTSD symptom improvement, and as such, the analytic sample for this study included only patients with PROMs that were at least 30 days apart. 30 days was selected to allow for medications to be taken for at least one full course (typically 28 days). Patients with PROMs more than 365 days apart were excluded as these are unlikely to provide an accurate assessment of PTSD symptom change between the two time points. For patients who had two overlapping PROM intervals, those closest to 84 days in length were chosen to emulate typical PTSD medication efficacy trials (Watts et al. (2013) J Clin Psychiatry. 74: e541-550). When a patient had two or more overlapping intervals at exactly 84 days, the historically earliest interval was chosen. If patients had multiple non-overlapping intervals, all were included. Patients who met the selection criteria for PTSD in the original cohort and had at least one PROM pair where they started a new medication (defined below) constituted the overall analytic sample for the current study.
PTSD Improvement Cases and No Improvement Controls. In order to maximize the number of patients with available symptomatic measurement, two different versions of a PROM for PTSD were integrated into a single dataset (Shiner et al. (2021) J Eval Clin Pract.). The two PROMs were the PCL versions aligned to the Diagnostic and Statistical Manual of Mental Disorders (DSM), version IV and Version 5 (APA (2000): Diagnostic and Statistical Manual of Mental Disorders. 4th Edition. Text Revision: DSM-IV-TR. Arlington, VA: American Psychiatric Association: APA (2013): Diagnostic and Statistical Manual of Mental Disorders: Fifth Edition (DSM-5). Washington, D.C.: American Psychiatric Association), which will heretofore be called the PCL-IV and the PCL-5 (Blevins et al. (2015) J Trauma Stress. 28:489-498: Weathers et al. (1993) Trauma. Coping. and Adaptation. San Antonio, Texas: International Society for Traumatic Stress Studies, 9th Annual Meeting). […] A validated crosswalk (ICC=0.96) was used to convert all values to PCL-5 scoring (Moshier et al. (Under review): An empirical crosswalk for the PTSD Checklist: Translating DSM-IV to DSM-5). PTSD improvement cases were defined by a clinically meaningful improvement, which was a decrease of 15 points or more between assessment points (Lee et al. (2019) Reliable Change Index and Clinically Significant Margins for the CAPS-5 and PCL-5 among Veterans. Boston, MA: International Society for Traumatic Stress Studies, 35th Annual Meeting). […] Thus, the no PTSD improvement control group was defined as worsening of symptoms or reductions of up to 7 points on the PCL. Improvements between 8 and 14 points were of uncertain clinical significance and were therefore excluded.
Identification and Classification of New Medications. The predictors of interest were initiation of medications for any indication. Candidate agents included those that were started in the interval between PCL pairs and continued for at least a 28-day supply. When patients started multiple medications between a given PCL pair, they contributed information for each of the medications in the tree.

[1] = all patients in the overall sample
[2] = baseline PCL score of 38 or higher and PTSD diagnosis within 30 days
[3] = case = improved by 15 or more points on PTSD Checklist, all patients in the overall sample
[4] = improvement in PTSD, all patients in the overall sample
[5] = baseline PCL 38 or higher, PTSD diagnosis within 30 days, without any concurrent evidence-based treatment
[6] = overall sample without any concurrent evidence-based treatment

CNCC[C@@H](Oc1ccccc1C)c1ccccc1 [Atomoxetine]
EXP = Expected Cases [1]: 74 | EXP = Expected Cases [2]: 65 | O:E = Observed Cases over Expected Cases [2]: 1.41 | OBS = Observed Cases [2]: 92 | OBS = Observed Cases [3]: 104 | O:E = Observed Cases over Expected Cases [4]: 1.40

CN(C)CCCC1(c2ccc(F)cc2)OCc2cc(C#N)ccc21 (stereo not shown) [Citalopram]
EXP = Expected Cases [1]: 1508 | EXP = Expected Cases [5]: 632 | O:E = Observed Cases over Expected Cases [5]: 1.25 | OBS = Observed Cases [5]: 785 | EXP = Expected Cases [2]: 1202 | O:E = Observed Cases over Expected Cases [2]: 1.10 | OBS = Observed Cases [2]: 1315 | OBS = Observed Cases [3]: 1653 | O:E = Observed Cases over Expected Cases [4]: 1.10 | association with PTSD symptom improvement, in words (statistical alert at P<0.1): similarly small associations | EXP = Expected Cases [6]: 814 | O:E = Observed Cases over Expected Cases [6]: 1.28 | OBS = Observed Cases [6]: 1039

CN(C)CCC[C@@]1(c2ccc(F)cc2)OCc2cc(C#N)ccc21 [Escitalopram]
EXP = Expected Cases [6]: 474 | OBS = Observed Cases [6]: 558

Nc1nc2ncc(CNc3ccc(C(=O)N[C@@H](CCC(=O)O)C(=O)O)cc3)nc2c(=O)[nH]1 [Folic Acid]
EXP = Expected Cases [1]: 445 | EXP = Expected Cases [2]: 391 | O:E = Observed Cases over Expected Cases [2]: 1.20 | OBS = Observed Cases [2]: 469 | OBS = Observed Cases [3]: 567 | O:E = Observed Cases over Expected Cases [4]: 1.27 | EXP = Expected Cases [6]: 134 | O:E = Observed Cases over Expected Cases [6]: 1.38 | OBS = Observed Cases [6]: 185

[Li] [Lithium]
EXP = Expected Cases [1]: 246 | OBS = Observed Cases [3]: 304 | O:E = Observed Cases over Expected Cases [4]: 1.24 | association with PTSD symptom improvement, in words (statistical alert at P<0.1): similarly small associations | EXP = Expected Cases [6]: 92 | O:E = Observed Cases over Expected Cases [6]: 1.38 | OBS = Observed Cases [6]: 127

COc1ccc2[nH]cc(CCNC(C)=O)c2c1 [Melatonin]
EXP = Expected Cases [1]: 1161 | EXP = Expected Cases [2]: 1033 | O:E = Observed Cases over Expected Cases [2]: 1.10 | OBS = Observed Cases [2]: 1131 | OBS = Observed Cases [3]: 1295 | O:E = Observed Cases over Expected Cases [4]: 1.12

CN1CCN2c3ncccc3Cc3ccccc3C2C1 (stereo not shown) [Mirtazapine]
EXP = Expected Cases [6]: 755 | O:E = Observed Cases over Expected Cases [6]: 1.13 | OBS = Observed Cases [6]: 849

CN1CCCC1c1cccnc1 (stereo not shown) [Nicotine]
EXP = Expected Cases [1]: 2109 | EXP = Expected Cases [5]: 522 | O:E = Observed Cases over Expected Cases [5]: 1.17 | OBS = Observed Cases [5]: 610 | EXP = Expected Cases [2]: 1736 | OBS = Observed Cases [2]: 2007 | OBS = Observed Cases [3]: 2371 | O:E = Observed Cases over Expected Cases [4]: 1.13

COC(=O)N[C@H](C(=O)N1CCC[C@H]1c1nc2cc(F)c([C@H]3CC[C@H](c4cc5[nH]c([C@@H]6CCCN6C(=O)[C@@H](NC(=O)OC)[C@@H](C)OC)nc5cc4F)N3c3cc(F)c(N4CCC(c5ccc(F)cc5)CC4)c(F)c3)cc2[nH]1)[C@@H](C)OC [Pibrentasvir, pibrentasvir]
EXP = Expected Cases [1]: 16 | EXP = Expected Cases [5]: 4 | O:E = Observed Cases over Expected Cases [5]: 3.52 | OBS = Observed Cases [5]: 14 | EXP = Expected Cases [2]: 14 | O:E = Observed Cases over Expected Cases [2]: 2.21 | OBS = Observed Cases [2]: 30 | OBS = Observed Cases [3]: 33 | O:E = Observed Cases over Expected Cases [4]: 2.09 | O:E = Observed Cases over Expected Cases (improvement in PTSD, all patients in the overall sample, listed as pibrentasvir): 2.09 | EXP = Expected Cases [6]: 5 | O:E = Observed Cases over Expected Cases [6]: 3.09 | OBS = Observed Cases [6]: 14

Cc1ncc(C[n+]2csc(CCO)c2C)c(N)n1 [Thiamine]
EXP = Expected Cases [1]: 351 | EXP = Expected Cases [2]: 304 | O:E = Observed Cases over Expected Cases [2]: 1.24 | OBS = Observed Cases [2]: 377 | OBS = Observed Cases [3]: 444 | O:E = Observed Cases over Expected Cases [4]: 1.27 | EXP = Expected Cases [6]: 106 | O:E = Observed Cases over Expected Cases [6]: 1.38 | OBS = Observed Cases [6]: 146

Source: US20250032484A1, “THERAPEUTIC TARGETS AND AGENTS FOR THE TREATMENT OF POSTTRAUMATIC STRESS DISORDER” (priority 2021, published 2025)
